Results reported in ChEMBL document CHEMBL4190187, “Discovery of pyrazolopyrimidine derivatives as novel inhibitors of ataxia telangiectasia and rad3 related protein (ATR)” (Bioorg Med Chem Lett, 2017).

Key:
[1] = Half life in mouse at 10 mg/kg, po; assay type: ADME, organism-based; details: in vivo
[2] = test system: Tyrosine-protein kinase ABL1 (Homo sapiens), P00519 [Q252H]; test: Inhibition of recombinant human Abl Q252H mutant (27 to end residues) at 1 uM using EAIYAAPFAKKK as substrate after 40 mins in presence of [gamma-33P]ATP by scintillation counting method
[3] = biological target: Serine/threonine-protein kinase BRSK2 (Homo sapiens) (UniProt Q8IWQ3); test: Inhibition of recombinant human BrSK2 (2 to end residues) at 1 uM using KKLNRTLSFAEPG as substrate after 40 mins in presence of [gamma-33P]ATP by scintillation counting method
Serine/threonine-protein kinase BRSK2 (Homo sapiens), sequence (Q8IWQ3 whole entry): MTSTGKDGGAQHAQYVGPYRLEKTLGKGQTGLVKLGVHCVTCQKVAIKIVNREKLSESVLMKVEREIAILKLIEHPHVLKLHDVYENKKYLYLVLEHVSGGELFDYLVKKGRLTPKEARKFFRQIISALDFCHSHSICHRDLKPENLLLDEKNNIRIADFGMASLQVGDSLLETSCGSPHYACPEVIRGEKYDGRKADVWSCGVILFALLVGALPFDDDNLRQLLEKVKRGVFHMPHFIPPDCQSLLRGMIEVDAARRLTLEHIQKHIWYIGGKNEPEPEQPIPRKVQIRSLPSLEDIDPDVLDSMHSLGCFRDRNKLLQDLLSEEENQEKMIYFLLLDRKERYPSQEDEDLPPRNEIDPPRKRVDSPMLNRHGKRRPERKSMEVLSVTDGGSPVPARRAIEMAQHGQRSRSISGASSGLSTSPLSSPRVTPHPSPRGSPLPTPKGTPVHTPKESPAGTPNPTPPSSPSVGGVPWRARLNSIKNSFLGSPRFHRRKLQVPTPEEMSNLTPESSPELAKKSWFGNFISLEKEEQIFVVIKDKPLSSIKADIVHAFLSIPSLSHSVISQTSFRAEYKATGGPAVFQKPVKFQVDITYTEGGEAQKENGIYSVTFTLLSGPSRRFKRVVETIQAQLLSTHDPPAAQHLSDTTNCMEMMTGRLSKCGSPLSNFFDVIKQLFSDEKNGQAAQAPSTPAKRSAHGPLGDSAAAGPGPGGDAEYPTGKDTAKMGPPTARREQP

[4] = biological target: CDK18/Cyclin Y (Homo sapiens) (UniProt Q07002+Q8ND76); test: Inhibition of recombinant full-length human CDK18/Cyclin Y at 1 uM using YRRAAVPPSPSLSRHSSPHQS(p)EDEEE as substrate after 40 mins in presence of [gamma-33P]ATP by scintillation counting method; assay type: protein-complex assay
[5] = biological target: Cyclin-dependent kinase-like 1 (Homo sapiens) (UniProt Q00532); test: Inhibition of recombinant human CDKL1 (1 to 303 residues) at 1 uM using RRRFRPASPLRGPPK as substrate after 120 mins in presence of [gamma-33P]ATP by scintillation counting method
Cyclin-dependent kinase-like 1 (Homo sapiens), sequence (Q00532 whole entry, the tested form may be a part): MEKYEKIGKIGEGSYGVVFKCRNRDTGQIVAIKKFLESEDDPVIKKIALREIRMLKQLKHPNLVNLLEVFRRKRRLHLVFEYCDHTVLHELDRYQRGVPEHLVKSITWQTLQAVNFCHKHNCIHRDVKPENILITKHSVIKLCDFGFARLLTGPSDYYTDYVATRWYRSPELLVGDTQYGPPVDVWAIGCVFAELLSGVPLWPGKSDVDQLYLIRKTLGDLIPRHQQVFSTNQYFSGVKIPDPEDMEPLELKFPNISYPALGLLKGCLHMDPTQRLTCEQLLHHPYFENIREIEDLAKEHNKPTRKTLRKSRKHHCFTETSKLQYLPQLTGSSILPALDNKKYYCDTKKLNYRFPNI

[6] = test system: Receptor-type tyrosine-protein kinase FLT3 (Homo sapiens), P36888 [D835Y]; test: Inhibition of recombinant human Flt3 D835Y mutant (564 to end residues) at 1 uM using EAIYAAPFAKKK as substrate after 40 mins in presence of [gamma-33P]ATP by scintillation counting method
[7] = biological target: eIF-2-alpha kinase GCN2 (Homo sapiens) (UniProt Q9P2K8); test: Inhibition of recombinant full-length human GCN2 at 1 uM using RSRSRSRSRSRSRSR as substrate after 40 mins in presence of [gamma-33P]ATP by scintillation counting method
[8] = biological target: Serine/threonine-protein kinase haspin (Homo sapiens) (UniProt Q8TF76); test: Inhibition of recombinant human Haspin (471 to end residues) at 1 uM using RARTLSFAEPG as substrate after 40 mins in presence of [gamma-33P]ATP by scintillation counting method
[9] = biological target: Tyrosine-protein kinase Lck (Homo sapiens) (UniProt P06239); test: Inhibition of recombinant full-length human Lck at 1 uM using KVEKIGEGTYGVVYK (Cdc2 peptide) as substrate after 40 mins in presence of [gamma-33P]ATP by scintillation counting method
[10] = biological target: Mitogen-activated protein kinase kinase kinase kinase 3 (Homo sapiens) (UniProt Q8IVH8); test: Inhibition of recombinant human MAP4K3 (1 to 291 residues) at 1 uM using RRRFRPASPLRGPPK as substrate after 40 mins in presence of [gamma-33P]ATP by scintillation counting method
[11] = biological target: Mitogen-activated protein kinase 1 (Mus musculus) (UniProt P63085); test: Inhibition of recombinant full-length mouse MAPK2 at 1 uM using myelin basic protein as substrate after 40 mins in presence of [gamma-33P]ATP by scintillation counting method
[12] = biological target: Dual specificity mitogen-activated protein kinase kinase 1 (Homo sapiens) (UniProt Q02750); test: Inhibition of recombinant full-length human MEK1 at 1 uM using inactive MAPK2 as substrate after 40 mins in presence of [gamma-33P]ATP by scintillation counting method
Dual specificity mitogen-activated protein kinase kinase 1 (Homo sapiens), sequence (Q02750 whole entry, the tested form may be a part): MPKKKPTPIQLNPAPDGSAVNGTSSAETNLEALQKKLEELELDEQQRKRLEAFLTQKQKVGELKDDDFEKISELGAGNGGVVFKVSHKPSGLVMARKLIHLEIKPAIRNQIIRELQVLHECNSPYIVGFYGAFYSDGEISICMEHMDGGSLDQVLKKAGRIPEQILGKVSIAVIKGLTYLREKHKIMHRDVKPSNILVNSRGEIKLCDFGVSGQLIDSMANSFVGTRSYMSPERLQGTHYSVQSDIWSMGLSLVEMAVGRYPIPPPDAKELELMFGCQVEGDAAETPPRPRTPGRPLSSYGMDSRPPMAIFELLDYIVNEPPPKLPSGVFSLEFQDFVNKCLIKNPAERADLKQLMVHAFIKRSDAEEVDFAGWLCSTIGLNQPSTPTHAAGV

[13] = biological target: Myosin light chain kinase, smooth muscle (Homo sapiens) (UniProt Q15746); test: Inhibition of recombinant human MLCK (1425 to 1771 residues) at 1 uM using […] after 40 mins in presence of [gamma-33P]ATP by scintillation counting method
[14] = biological target: MAP kinase-interacting serine/threonine-protein kinase 2 (Homo sapiens) (UniProt Q9HBH9); test: Inhibition of recombinant full-length human Mnk2 at 1 uM using myelin basic protein as substrate after 40 mins in presence of [gamma-33P]ATP by scintillation counting method
[15] = biological target: Platelet-derived growth factor receptor beta (Homo sapiens) (UniProt P09619); test: Inhibition of recombinant human PDGFRbeta (557 to end residues) at 1 uM using poly(Glu,Tyr) 4:1 as substrate after 40 mins in presence of [gamma-33P]ATP by scintillation counting method
[16] = biological target: Eukaryotic translation initiation factor 2-alpha kinase 3 (Homo sapiens) (UniProt Q9NZJ5); test: Inhibition of recombinant human PEK (536 to end residues) at 1 uM using RSRSRSRSRSRSRSR as substrate after 40 mins in presence of [gamma-33P]ATP by scintillation counting method
Eukaryotic translation initiation factor 2-alpha kinase 3 (Homo sapiens), sequence (Q9NZJ5 whole entry): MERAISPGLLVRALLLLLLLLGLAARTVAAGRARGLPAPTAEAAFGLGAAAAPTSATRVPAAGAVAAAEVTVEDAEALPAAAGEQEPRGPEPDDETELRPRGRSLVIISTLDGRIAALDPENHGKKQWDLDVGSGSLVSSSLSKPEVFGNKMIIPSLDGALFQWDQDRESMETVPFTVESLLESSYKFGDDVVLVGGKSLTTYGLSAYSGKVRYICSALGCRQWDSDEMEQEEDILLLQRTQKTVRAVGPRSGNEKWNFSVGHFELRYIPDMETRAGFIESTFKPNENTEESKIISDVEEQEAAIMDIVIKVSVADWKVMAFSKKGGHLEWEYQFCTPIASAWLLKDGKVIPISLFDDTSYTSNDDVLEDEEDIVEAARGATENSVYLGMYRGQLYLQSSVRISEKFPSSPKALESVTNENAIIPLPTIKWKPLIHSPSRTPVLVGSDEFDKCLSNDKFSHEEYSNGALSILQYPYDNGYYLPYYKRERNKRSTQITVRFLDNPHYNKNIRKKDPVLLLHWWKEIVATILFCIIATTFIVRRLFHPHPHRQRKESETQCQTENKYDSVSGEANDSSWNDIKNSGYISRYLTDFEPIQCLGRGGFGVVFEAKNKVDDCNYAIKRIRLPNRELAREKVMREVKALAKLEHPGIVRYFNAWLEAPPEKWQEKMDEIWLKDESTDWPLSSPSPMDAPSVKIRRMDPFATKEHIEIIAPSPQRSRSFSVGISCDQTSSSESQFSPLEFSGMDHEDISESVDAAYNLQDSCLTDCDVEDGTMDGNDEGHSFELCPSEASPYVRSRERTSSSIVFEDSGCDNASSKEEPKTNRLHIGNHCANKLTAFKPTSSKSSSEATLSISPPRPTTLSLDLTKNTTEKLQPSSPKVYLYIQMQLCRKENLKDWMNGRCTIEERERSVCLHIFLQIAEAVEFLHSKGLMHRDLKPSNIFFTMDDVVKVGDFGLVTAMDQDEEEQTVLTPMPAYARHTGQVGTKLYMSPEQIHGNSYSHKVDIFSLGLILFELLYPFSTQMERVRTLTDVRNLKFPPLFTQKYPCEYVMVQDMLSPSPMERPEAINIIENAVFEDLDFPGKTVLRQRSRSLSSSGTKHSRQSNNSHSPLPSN

[17] = biological target: PI3K p110 alpha/p85 alpha (Mus musculus) (UniProt P26450+P42337); test: Inhibition of recombinant full-length mouse p110a E542K mutant/p85a at 1 uM using phosphatidylinositol 4,5-bisphosphate as substrate after 40 mins in presence of [gamma-33P]ATP by scintillation counting method; assay type: protein-complex assay
[18] = test system: PI3-kinase p110-alpha/p85-alpha (Homo sapiens), P27986+P42336 [H1047R]; test: Inhibition of recombinant full-length human p110a H1047R mutant/p85a at 1 uM using phosphatidylinositol 4,5-bisphosphate as substrate after 40 mins in presence of [gamma-33P]ATP by scintillation counting method; assay type: protein-complex assay
[19] = biological target: Phosphatidylinositol 5-phosphate 4-kinase type-2 alpha (Homo sapiens) (UniProt P48426); test: Inhibition of recombinant full-length human PIP4K2alpha at 1 uM using phosphatidylinositol 5-phosphate/phosphatidylserine as substrate after 40 mins in presence of [gamma-33P]ATP by scintillation counting method
[20] = biological target: Protein kinase C delta type (Homo sapiens) (UniProt Q05655); test: Inhibition of recombinant human PKCdelta (2 to end residues) at 1 uM using ERMRPRKRQGSVRRRV as substrate after 40 mins in presence of [gamma-33P]ATP by scintillation counting method
Protein kinase C delta type (Homo sapiens), sequence (Q05655 whole entry, looked up): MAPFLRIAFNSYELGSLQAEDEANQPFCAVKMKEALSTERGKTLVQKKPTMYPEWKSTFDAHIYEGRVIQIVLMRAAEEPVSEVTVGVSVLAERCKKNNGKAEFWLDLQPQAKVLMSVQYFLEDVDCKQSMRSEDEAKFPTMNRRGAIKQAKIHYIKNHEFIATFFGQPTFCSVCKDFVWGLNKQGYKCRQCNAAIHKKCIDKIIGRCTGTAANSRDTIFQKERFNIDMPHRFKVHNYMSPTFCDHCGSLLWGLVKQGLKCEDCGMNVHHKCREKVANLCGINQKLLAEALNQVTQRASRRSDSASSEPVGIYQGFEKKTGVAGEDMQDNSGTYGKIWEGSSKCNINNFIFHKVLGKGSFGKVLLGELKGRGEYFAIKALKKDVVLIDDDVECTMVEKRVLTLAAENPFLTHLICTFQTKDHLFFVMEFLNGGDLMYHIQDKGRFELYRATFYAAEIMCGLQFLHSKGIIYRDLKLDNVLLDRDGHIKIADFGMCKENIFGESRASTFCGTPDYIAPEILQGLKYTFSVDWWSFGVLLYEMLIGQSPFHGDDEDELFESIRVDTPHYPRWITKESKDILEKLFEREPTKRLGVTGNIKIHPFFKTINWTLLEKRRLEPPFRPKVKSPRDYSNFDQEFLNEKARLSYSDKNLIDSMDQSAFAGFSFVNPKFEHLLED

[21] = biological target: Macrophage-stimulating protein receptor (Homo sapiens) (UniProt Q04912); test: Inhibition of recombinant human Ron (983 to end residues) at 1 uM using GGMEDIYFEFMGGKKK as substrate after 40 mins in presence of [gamma-33P]ATP by scintillation counting method
Macrophage-stimulating protein receptor (Homo sapiens), sequence (Q04912 25-304 limits assumed): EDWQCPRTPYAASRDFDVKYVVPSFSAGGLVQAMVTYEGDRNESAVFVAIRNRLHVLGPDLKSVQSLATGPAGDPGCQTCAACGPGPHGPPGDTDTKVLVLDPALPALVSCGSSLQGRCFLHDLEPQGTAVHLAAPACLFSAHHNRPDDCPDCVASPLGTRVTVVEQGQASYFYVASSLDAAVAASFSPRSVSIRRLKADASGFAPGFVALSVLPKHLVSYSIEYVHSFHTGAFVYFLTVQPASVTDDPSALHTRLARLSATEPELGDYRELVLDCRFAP
Macrophage-stimulating protein receptor (Homo sapiens), sequence (Q04912 310-1400 limits assumed): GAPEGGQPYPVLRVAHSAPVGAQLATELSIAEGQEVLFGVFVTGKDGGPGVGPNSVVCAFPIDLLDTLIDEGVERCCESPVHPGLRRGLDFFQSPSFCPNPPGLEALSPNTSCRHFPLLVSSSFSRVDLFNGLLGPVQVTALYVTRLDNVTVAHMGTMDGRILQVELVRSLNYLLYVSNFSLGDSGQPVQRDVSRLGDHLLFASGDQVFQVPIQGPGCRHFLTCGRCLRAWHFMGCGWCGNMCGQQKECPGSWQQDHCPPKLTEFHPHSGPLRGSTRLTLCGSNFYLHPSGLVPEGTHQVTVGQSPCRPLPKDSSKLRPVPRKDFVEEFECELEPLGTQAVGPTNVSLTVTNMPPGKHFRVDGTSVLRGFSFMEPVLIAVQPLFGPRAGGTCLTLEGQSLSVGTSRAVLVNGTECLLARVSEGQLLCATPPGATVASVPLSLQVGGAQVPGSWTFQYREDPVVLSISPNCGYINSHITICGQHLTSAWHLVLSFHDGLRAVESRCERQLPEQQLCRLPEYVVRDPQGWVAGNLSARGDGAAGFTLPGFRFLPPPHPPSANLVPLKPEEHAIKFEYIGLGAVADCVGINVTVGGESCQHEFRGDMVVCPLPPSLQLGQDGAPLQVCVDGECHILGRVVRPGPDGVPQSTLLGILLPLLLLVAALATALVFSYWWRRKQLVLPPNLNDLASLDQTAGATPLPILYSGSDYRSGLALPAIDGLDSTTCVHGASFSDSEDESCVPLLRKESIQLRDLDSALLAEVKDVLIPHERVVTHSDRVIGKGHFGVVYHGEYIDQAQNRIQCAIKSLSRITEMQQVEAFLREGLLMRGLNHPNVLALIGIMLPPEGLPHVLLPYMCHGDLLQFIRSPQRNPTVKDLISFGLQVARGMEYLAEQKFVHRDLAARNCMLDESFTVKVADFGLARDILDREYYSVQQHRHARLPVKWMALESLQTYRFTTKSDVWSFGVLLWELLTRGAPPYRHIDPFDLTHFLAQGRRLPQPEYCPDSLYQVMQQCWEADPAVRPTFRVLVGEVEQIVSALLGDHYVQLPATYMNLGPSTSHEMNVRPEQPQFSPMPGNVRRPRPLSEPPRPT

[22] = biological target: Mitogen-activated protein kinase 11 (Homo sapiens) (UniProt Q15759); test: Inhibition of recombinant full-length human SAPK2b at 1 uM using myelin basic protein as substrate after 40 mins in presence of [gamma-33P]ATP by scintillation counting method
Mitogen-activated protein kinase 11 (Homo sapiens), sequence (Q15759 whole entry): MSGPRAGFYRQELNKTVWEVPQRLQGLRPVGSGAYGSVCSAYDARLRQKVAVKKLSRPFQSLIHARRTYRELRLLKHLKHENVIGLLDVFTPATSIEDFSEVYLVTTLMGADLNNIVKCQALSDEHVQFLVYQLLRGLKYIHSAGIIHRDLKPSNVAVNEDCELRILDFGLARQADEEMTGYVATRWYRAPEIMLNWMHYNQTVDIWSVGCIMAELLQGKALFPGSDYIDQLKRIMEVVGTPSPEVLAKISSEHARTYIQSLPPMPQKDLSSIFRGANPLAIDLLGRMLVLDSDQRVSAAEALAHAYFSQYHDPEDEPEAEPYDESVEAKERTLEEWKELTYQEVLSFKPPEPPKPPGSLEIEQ

[23] = biological target: BDNF/NT-3 growth factors receptor (Homo sapiens) (UniProt Q16620); test: Inhibition of recombinant human TrkB (455 to end residues) at 1 uM using poly(Glu,Tyr) 4:1 as substrate after 40 mins in presence of [gamma-33P]ATP by scintillation counting method
[24] = biological target: Non-receptor tyrosine-protein kinase TYK2 (Homo sapiens) (UniProt P29597); test: Inhibition of recombinant human TYK2 (875 to end residues) at 1 uM using GGMEDIYFEFMGGKKK as substrate after 40 mins in presence of [gamma-33P]ATP by scintillation counting method

CS(=O)(=O)c1ccc(-n2nc(-c3cnc4[nH]ccc4c3)c3c(N)ncnc32)cc1
half-life [1]: 2.28 h
inhibition [2]: 70%
inhibition [3]: 3%
inhibition [4]: 0%
inhibition [5]: 3%
inhibition [6]: 37%
inhibition [7]: 2%
inhibition [8]: -9%
inhibition [9]: 55%
inhibition [10]: 2%
inhibition [11]: 1%
inhibition [12]: -1%
inhibition [13]: 4%
inhibition [14]: -6%
inhibition [15]: -7%
inhibition [16]: 13%
inhibition [17]: 11%
inhibition [18]: 16%
inhibition [19]: -2%
inhibition [20]: 1%
inhibition [21]: 2%
inhibition [22]: -1%
inhibition [23]: 4%
inhibition [24]: 8%
